{"source": "patent US20240133884A1", "about": "“COMPOSITIONS AND METHODS FOR DETECTING TRYPANOSOMA CRUZI INFECTION” (University of Georgia Research Foundation, Inc., priority 2022, published 2024)", "key": {"[1]": {"test": "Pharmacokinetics in mice (intravenous and oral)", "assay_type": "in vivo", "conditions": "in words"}, "[2]": {"tested_on": "T. cruzi (CL strain)", "test": "Rapid in vivo assay: mouse footpad infection with tdTomato-expressing T. cruzi, single oral dose", "design": "species or system Trypanosoma cruzi", "conditions": "mice, reduced doses (FIG. 1B)", "description": "Fluorescent intensity of the feet was measured at 2 dpi before compound administration and at 4 dpi in the Maestro in vivo imaging system equipped with the software Maestro 2.1.0 (CRi) as previously described (Fleau, et al., J Med Chem 62, 10362-10375 (2019)). The proliferation index was estimated as PI=[(T4d−T2d)/(mUnt4d−mUnt2d)]*100; where T4d and T2d are the fluorescence intensity of the feet of the treated animals at days 4 and 2 post-infection respectively; mUnt4d and mUnt2d are the average fluorescence intensity of the feet of the untreated animals at 4 and 2 dpi respectively."}, "[3]": {"tested_on": "T. cruzi mRNA", "test": "RNA-Seq of infected Vero cells: parasite mRNA relative to host cell mRNA", "assay_type": "cell-based, Trypanosoma cruzi", "conditions": "as early as 6 hrs after addition (FIG. 5C)", "description": "Vero cells (10^6) were infected with 10^7 CL strain trypomastigotes of T. cruzi for 2 days before treating with either 5 uM benznidazole or 30 nM AN14353. The drug concentration used for treatment was set at 5 times the IC50. Samples were collected at several time points for RNA extraction as previously described (Minning, et al., BMC genomics 10, 370 (2009)). rRNA-depleted RNA library construction and RNA sequencing using Illumina Nextseq 75PE was carried out by Georgia Genomics and Bioinformatics Core (GGBC, University of Georgia, Georgia). Illumina reads with mean quality lower than 30 (Phred Score based) were removed from analysis, then mapped to CL Brener genome (TritrypDB release-33) and African green monkey genome (Osada, et al., DNA Res 21, 673-683 (2014)) using the HiSAT software package v0.1.6^50 with default parameters. The mapping rate was quantified by HTseq v0.6.1 (Anders, et al., Bioinformatics 31, 166-169 (2015))."}, "[4]": {"tested_on": "anti-T. cruzi antibodies", "test": "Luminex-based multiplex serological analysis in macaques", "assay_type": "in vivo, rhesus macaque (Macaca mulatta)", "conditions": "treated macaques, over 42 months after end of treatment", "description": "For a number of smaller proteins, fusions of up to 2 individual genes are employed for some target proteins in order to expand the array of antibodies being detected while controlling costs and complexity of the assay. (TritrypDb.org identifiers: Tc1=fusion of TcBrA4_0116860 and TcYC6_0028190; Tc2=fusion of TcBrA4_0088420 and TcBrA4_0101960; Tc3=fusion of TcBrA4_0104680 and TcBrA4_0101980; Tc4=fusion of TcBrA4_0028480 and TcBrA4_0088260; Tc5=fusion of TcYC6_0100010 and TcBrA4_0074300; Tc7=fusion of TcYC6_0083710 and TcBrA4_0130080; Tc8=TcYC6_0037170; Tc11=TcYC6_0124160; Tc17=fusion of TcBrA4_0028230 and TcBrA4_0029760; Kn107=TcCLB.508355.250; G10=TcCLB.504199.20). Macaque antibody binding to individual beads in the Multiplex assays was detected with donkey anti-human IgG (H+L) conjugated to phycoerythrin (Jackson ImmunoResearch) in a 1:200 dilution."}, "[5]": {"tested_on": "CPSF3", "test": "Resistance of CPSF3 overexpression line and CPSF3 mutant (intracellular amastigotes)", "assay_type": "cell-based, Trypanosoma cruzi", "description": "The in vitro anti-T. cruzi amastiogote activity assay was performed and optimized based on the protocol described previously (Canavaci, et al., PLoS neglected tropical diseases 4, e740 (2010)). The change in tdTomato fluorescence intensity was determined as a measurement of growth over 72 hours of culture. For assaying drug effects on extracellular amastigotes, trypomastigotes were collected from infected Vero cell cultures and converted in acidic media as previously described (Tomlinson, et al., Parasitology 110 (Pt 5), 547-554 (1995)). Amastigotes (50,000/well) were incubated with 2-fold serial dilutions of compounds for 48 hours. The ATP production was used as an indication of growth in this case, and was measured by ATPlite Luminescence ATP Detection Assay System (PerkinElmer). Both fluorescence and luminescence were read using a BioTek Synergy Hybrid Multi-Mode reader equipped with the software Gene5 v 2.0 (BioTek). The dose-response curve was generated by […] analysis with GraphPad Prism v9.4.0 (GraphPad Software). IC50 was determined as the drug concentration that was required to inhibit 50% of growth compared to that of parasites with no drug exposure. […]"}}, "data": [{"smiles": "Cc1c(C(=O)N[C@H](C(=O)OCc2ccc(F)c(F)c2)C(C)C)ccc2c1B(O)OC2", "note": "[AN14353]", "values": [{"measurement": "absorption (dose proportionality of exposure in vivo)", "setting": "[1]", "value": "solubility-limited absorption"}, {"measurement": "reduction of established focal footpad infection by a single oral dose", "setting": "[2]", "value": "activity at reduced doses"}, {"measurement": "parasite mRNA in T. cruzi-infected host cells", "setting": "[3]", "value": "marked and continuing reduction in parasite mRNA"}]}, {"smiles": "Cc1c(C(=O)N[C@H](C(=O)OCC2CCOCC2)C(C)C)ccc2c1B(O)OC2", "note": "[AN15368]", "values": [{"measurement": "antibody levels to recombinant T. cruzi proteins", "setting": "[4]", "value": "declines in antibody levels"}, {"measurement": "increase in resistance on overexpression of CPSF3", "setting": "[5]; intracellular amastigotes", "value": "3-5 fold"}, {"measurement": "effect of CPSF3 Asn232 to His mutation", "setting": "[5]; intracellular amastigotes (FIG. 5D)", "value": "conferred resistance"}]}]}
